In this assay the test system is BDF1 mice, P388 leukemia ip, median survival T/C. The experiment in a line: NCI In Vivo Anticancer Drug Screen. Data for tumor model P388 Leukemia (intraperitoneal) in B6D2F1 (BDF1) mice. To be noted: endpoint: median survival time, higher = longer survival. In short, it runs like this:
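Vehicle-dosed animals serve as the reference; survival of compound-dosed, tumour-implanted mice is divided by it.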

The mark [1] stands for this setting: dose: 100.0 mg/kg/injection, schedule: Q04DX003 (ip), vehicle: Klucel (hydroxypropylcellulose) (HPC).
[2] abbreviates: dose: 200.0 mg/kg/injection, schedule: Q04DX003 (ip), vehicle: Klucel (hydroxypropylcellulose) (HPC).
The mark [3] stands for this setting: dose: 200.0 mg/kg/injection, schedule: Q01DX009 (ip), vehicle: saline.
The mark [4] stands for this setting: dose: 100.0 mg/kg/injection, schedule: Q01DX009 (ip), vehicle: saline with Tween-80.
[5] abbreviates: dose: 200.0 mg/kg/injection, schedule: Q01DX009 (ip), vehicle: saline with Tween-80.
Where [6] appears, read: dose: 400.0 mg/kg/injection, schedule: Q01DX009 (ip), vehicle: saline with Tween-80.
[7] abbreviates: dose: 50.0 mg/kg/injection, schedule: Q01DX009 (ip), vehicle: saline with Tween-80.
The mark [8] stands for this setting: dose: 100.0 mg/kg/injection, schedule: Q04DX003 (ip), vehicle: water.
Where [9] appears, read: dose: 200.0 mg/kg/injection, schedule: Q04DX003 (ip), vehicle: water.
The mark [10] stands for this setting: dose: 400.0 mg/kg/injection, schedule: Q04DX003 (ip), vehicle: water.
[11] abbreviates: dose: 50.0 mg/kg/injection, schedule: Q01DX001 (ip), vehicle: saline with Tween-80.
Setting [12] is: dose: 100.0 mg/kg/injection, schedule: Q01DX001 (ip), vehicle: saline with Tween-80.
Setting [13] is: dose: 100.0 mg/kg/injection, schedule: Q01DX009 (ip), vehicle: saline.
[14] abbreviates: dose: 100.0 mg/kg/injection, schedule: Q04DX003 (ip), vehicle: saline with Tween-80.
[15] abbreviates: dose: 200.0 mg/kg/injection, schedule: Q04DX003 (ip), vehicle: saline with Tween-80.
Setting [16] is: dose: 400.0 mg/kg/injection, schedule: Q04DX003 (ip), vehicle: saline with Tween-80.

The source of these data is PubChem BioAssay AID328 (DTP/NCI, 2004).

Several values for one entry are separate records, joined by “and”; a condition that tells them apart may be missing. Identical values can stand only once. Inconclusive results and toxic doses are left out.

As for `C[n+]1ccc2cc(-c3ccccc3)c3ccccc3c2c1`, the T/C reads like this: (dose: 0.06 mg/kg/injection, schedule: Q01DX009 (ip), vehicle: water) 100 % of control; (dose: 0.12 mg/kg/injection, schedule: Q01DX009 (ip), vehicle: water) 88 % of control; (dose: 0.25 mg/kg/injection, schedule: Q01DX009 (ip), vehicle: water) 89 % of control; (dose: 0.5 mg/kg/injection, schedule: Q01DX009 (ip), vehicle: water) 100 % of control; (dose: 1.0 mg/kg/injection, schedule: Q01DX009 (ip), vehicle: water) 100 % of control and 101 % of control; (dose: 2.0 mg/kg/injection, schedule: Q01DX009 (ip), vehicle: water) 101 % of control. Moreover, the T/C (dose: 4.0 mg/kg/injection, schedule: Q01DX009 (ip), vehicle: water) was 99 % of control.
With `COC(OC)c1cc(=O)[nH]c(=S)n1Cl`, the T/C was 100 % of control under setting [1]; 104 % of control under setting [2]; 100 % of control (dose: 400.0 mg/kg/injection, schedule: Q04DX003 (ip), vehicle: Klucel (hydroxypropylcellulose) (HPC)).
Regarding `NCCCCC1NC(=O)C(CCCCN)NC1=O` (stereo not drawn), the T/C is, setting by setting: (dose: 50.0 mg/kg/injection, schedule: Q01DX005 (ip), vehicle: saline) 105 % of control; (dose: 100.0 mg/kg/injection, schedule: Q01DX005 (ip), vehicle: saline) 105 % of control; (dose: 200.0 mg/kg/injection, schedule: Q01DX005 (ip), vehicle: saline) 95 % of control.
`Cn1cnc([N+](=O)[O-])c1Sc1ncnc2nc[nH]c12`: the T/C (dose: 44.0 mg/kg/injection, schedule: Q04DX003 (ip), vehicle: saline sonified) is 110 % of control; the T/C (dose: 66.0 mg/kg/injection, schedule: Q04DX003 (ip), vehicle: saline sonified) is 120 % of control; the T/C (dose: 150.0 mg/kg/injection, schedule: Q04DX003 (ip), vehicle: saline sonified) was 175 % of control; the T/C under setting [3] is 86 % of control; the T/C (dose: 400.0 mg/kg/injection, schedule: Q04DX003 (ip), vehicle: saline sonified) was 109 % of control.
For the molecule `COc1ccc(C2(C#N)CCCC2)cc1`, the T/C under setting [4] was 100 % of control, the T/C under setting [5] was 108 % of control and the T/C under setting [6] is 108 % of control.
Regarding `CCOC(CN1CCN(CC(C)C(=O)c2ccccc2)CC1)c1ccccc1` (stereo not drawn), the T/C is 109 % of control under setting [7] and 118 % of control under setting [4].
As to `Cc1ccc(CNCC(=O)O)cc1`, the T/C under setting [8] is 99 % of control, the T/C under setting [9] was 102 % of control and the T/C under setting [10] was 90 % of control.
On to `O=C1C=C(Cl)C(=O)C2=C1CCCC2`, for which the T/C by setting is: (dose: 0.39 mg/kg/injection, schedule: Q04DX002 (ip), vehicle: saline) 92 % of control; (dose: 0.78 mg/kg/injection, schedule: Q04DX002 (ip), vehicle: saline) 97 % of control; (dose: 1.56 mg/kg/injection, schedule: Q04DX002 (ip), vehicle: saline with Tween-80) 96 % of control; (dose: 1.56 mg/kg/injection, schedule: Q04DX002 (ip), vehicle: saline) 101 % of control.
`CC(C)(C)c1ccc(OCc2cnc[nH]2)cc1`: for the setting “dose: 100.0 mg/kg/injection, schedule: Q01DX001 (ip), vehicle: saline”, the T/C was 113 % of control.
On to `C=CCCCCCCCCC(=O)N(C)OC`, for which the T/C (dose: 25.0 mg/kg/injection, schedule: Q01DX001 (ip), vehicle: saline with Tween-80) is 95 % of control; the T/C under setting [11] was 109 % of control; the T/C under setting [12] is 118 % of control.
In the case of `[CH3][Sn]([CH3])([Cl])[S]CCN`, the T/C (dose: 6.25 mg/kg/injection, schedule: Q01DX009 (ip), vehicle: saline) was 123 % of control.
With `CCOC(=S)SCc1cc(C(C)(C)C)c(O)c(C(C)(C)C)c1`, the T/C (dose: 100.0 mg/kg/injection, schedule: Q04DX002 (ip), vehicle: saline with Tween-80) is 100 % of control and the T/C (dose: 200.0 mg/kg/injection, schedule: Q04DX002 (ip), vehicle: saline with Tween-80) is 99 % of control.
As for `CC(=O)Nc1cc(NC(C)=O)cc(N(CCO)CCO)c1`, the T/C (dose: 3.12 mg/kg/injection, schedule: Q01DX009 (ip), vehicle: water) is 99 % of control; the T/C (dose: 6.25 mg/kg/injection, schedule: Q01DX009 (ip), vehicle: water) was 90 % of control and 111 % of control; the T/C (dose: 12.5 mg/kg/injection, schedule: Q01DX009 (ip), vehicle: water) is 93 % of control and 101 % of control; the T/C (dose: 25.0 mg/kg/injection, schedule: Q01DX009 (ip), vehicle: water) was 97 % of control and 101 % of control; the T/C (dose: 25.0 mg/kg/injection, schedule: Q04DX003 (ip), vehicle: water) was 89 % of control; the T/C (dose: 50.0 mg/kg/injection, schedule: Q01DX009 (ip), vehicle: water) is 117 % of control. Further, the T/C (dose: 50.0 mg/kg/injection, schedule: Q04DX003 (ip), vehicle: water) was 100 % of control; the T/C under setting [8] was 104 % of control; the T/C under setting [9] was 112 % of control; the T/C under setting [10] is 108 % of control.
Turning to `O=C(/C=C/c1cccc(O)c1)c1ccccc1`, the T/C is, setting by setting: under setting [7], 91 % of control; under setting [4], 99 % of control; under setting [5], 101 % of control.
As to `CC1(C)C=C(C(Br)c2ccc(Cl)cc2)C(=O)c2ccccc21` (stereo not drawn), the T/C by setting is: (dose: 50.0 mg/kg/injection, schedule: Q01DX009 (ip), vehicle: Klucel (hydroxypropylcellulose) (HPC)) 100 % of control; (dose: 50.0 mg/kg/injection, schedule: Q04DX003 (ip), vehicle: Klucel (hydroxypropylcellulose) (HPC)) 100 % of control; (dose: 100.0 mg/kg/injection, schedule: Q01DX009 (ip), vehicle: Klucel (hydroxypropylcellulose) (HPC)) 100 % of control and 105 % of control; under setting [13], 160 % of control; under setting [1], 90 % of control; under setting [2], 100 % of control. For the same molecule, the T/C (dose: 400.0 mg/kg/injection, schedule: Q01DX009 (ip), vehicle: Klucel (hydroxypropylcellulose) (HPC)) was 95 % of control.
In the case of `CCOC(=O)C12CC=CC(CCC1)C2=O` (stereo not drawn) (tested in a mixture with another compound), the T/C by setting is: under setting [4], 100 % of control; under setting [14], 90 % of control; under setting [5], 104 % of control; under setting [15], 95 % of control; under setting [6], 90 % of control; under setting [16], 104 % of control.
For `COC1OC(CNC(=O)N(C)N=O)C(O)C(O)C1O` (stereo not drawn), the T/C was 164 % of control under setting [13]; 240 % of control under setting [3]; 154 % of control (dose: 266.0 mg/kg/injection, schedule: Q04DX003 (ip), vehicle: saline); 309 % of control (dose: 400.0 mg/kg/injection, schedule: Q01DX009 (ip), vehicle: saline); 162 % of control (dose: 400.0 mg/kg/injection, schedule: Q04DX003 (ip), vehicle: saline); 216 % of control (dose: 600.0 mg/kg/injection, schedule: Q04DX003 (ip), vehicle: saline).
In the case of `CCC[S-].CCC[S-].[C-]#[O+].[C-]#[O+].[C-]#[O+].[C-]#[O+].[Rh].[Rh]`, the T/C under setting [14] is 122 % of control; the T/C under setting [5] was 90 % of control; the T/C under setting [15] is 122 % of control; the T/C under setting [6] is 100 % of control; the T/C under setting [16] is 122 % of control.
For `CC1=CC(C)(C)Nc2ccc(CSc3ccccc3)cc21`, the T/C was 102 % of control (dose: 50.0 mg/kg/injection, schedule: Q01DX009 (ip), vehicle: saline + alcohol); 120 % of control (dose: 100.0 mg/kg/injection, schedule: Q01DX009 (ip), vehicle: saline + alcohol); 120 % of control (dose: 200.0 mg/kg/injection, schedule: Q01DX009 (ip), vehicle: saline + alcohol).
Consider `Clc1ccc2c(c1)nnn2OC1CCCC1`, for which the T/C was 97 % of control under setting [7], 88 % of control under setting [4] and 90 % of control under setting [5].
For the molecule `CC(=O)Nc1ccc(NC2=NCCO2)cc1`, the T/C is, setting by setting: under setting [11], 100 % of control; under setting [12], 95 % of control; (dose: 200.0 mg/kg/injection, schedule: Q01DX001 (ip), vehicle: saline with Tween-80) 90 % of control.
